This is an account of results in ChEMBL document CHEMBL6127154, “Pursuing Polypharmacology: Benzothiopyranoindoles as G-Quadruplex Stabilizers and Topoisomerase I Inhibitors for Effective Anticancer Strategies” (ACS Med Chem Lett, 2024).

The source made the active and inactive calls. The rule behind the calls is not given here.

In assay [1] the test system is Quadruplex DNA. Nature of the assay: Thermal stabilization of human c-Kit2 G4 quadruplex DNA assessed as change in melting temperature (deltaT1/2) incubated for 10 mins by circular dichroism spectroscopic analysis (reference value: 62.4 +/-0.1 degreeC). Format: nucleic-acid assay. For orientation: CD spectra are sensitive to the conformation of chiral molecules.
For assay [2], the system named is Quadruplex DNA. Description: Thermal stabilization of human c-Myc G4 quadruplex DNA assessed as change in melting temperature (deltaT1/2) incubated for 10 mins by circular dichroism spectroscopic analysis (reference value: 70.5 +/- 0.1 degreeC). Format: nucleic-acid assay.
Assay [3] relates to Quadruplex DNA. Nature of the assay: Thermal stabilization of human Tel23-p G4 quadruplex DNA assessed as change in melting temperature (deltaT1/2) incubated for 10 mins by circular dichroism spectroscopic analysis (reference value: 68.2 +/- 0.1 degreeC). Type of assay: nucleic-acid assay.
In assay [4] the test system is Quadruplex DNA. Nature of the assay: Thermal stabilization of human Tel23-hy G4 quadruplex DNA assessed as change in melting temperature (deltaT1/2) incubated for 10 mins by circular dichroism spectroscopic analysis (reference value: 48 +/- 0.1 degreeC). Type of assay: nucleic-acid assay.
For assay [5], the system named is Quadruplex DNA. Nature of the assay: Thermal stabilization of human Tel26-hy G4 quadruplex DNA assessed as change in melting temperature (deltaT1/2) incubated for 10 mins by circular dichroism spectroscopic analysis (reference value: 55.4 +/- 0.1 degreeC). Type of assay: nucleic-acid assay.
Assay [6] relates to HCT-116. Description: Induction of DNA damage in human HCT-116 cells assessed as increase in gammaH2AX level incubated for 24 hrs by immunofluorescence staining based analysis. Type of assay: functional, cell-based.
Assay [7] concerns HCT-116. Nature of the assay: Induction of DNA damage in human HCT-116 cells assessed as increase in 53BP1 foci positive cells incubated for 24 hrs by immunofluorescence staining based analysis. Type of assay: functional, cell-based.

Regarding `COc1ccc2cc3[n+](cc2c1OC)CCc1cc2c(cc1-3)OCO2`, the ΔTm – broadly, the shift of the melting midpoint relative to a reference – was more than 20 °C in assay [1]; 15.5 °C in assay [2]; more than 20 °C in assay [3]; 12.7 °C in assay [4]; 6.8 °C in assay [5].
As for `CC[C@@]1(O)C(=O)OCc2c1cc1n(c2=O)Cc2cc3ccccc3nc2-1`, the outcome in assay [6] and in assay [7] was Active.
